According to article PMC8868297, “Stapling of Peptides Potentiates the Antibiotic Treatment of Acinetobacter baumannii In Vivo” (Antibiotics, 2022):
Like-named read-outs stand apart in the source and are kept apart here.

What was measured:
[1] = tested on: E. coli gsk12; experiment: MIC / checkerboard synergy assay; type: cell-based, Escherichia coli
Experimental: (§1) Minimum inhibitory concentrations of the peptides and antibiotics were determined according to the protocol described by Wiegand et al.. Briefly, two-fold dilution series of cationic peptides in 50 µL volume of LB broth containing 2% DMSO were made in polypropylene 96-well microtiter plates (Ratiolab, L6018123, Dreieich, Germany). The optical density at 600 nm (OD600) of growing bacterial cultures was followed, and at mid-log-phase (OD600 ~0.4–0.5) cultures were diluted to OD600 0.02 and 50 µL was added to the wells, resulting in a total volume of 100 µl, an OD600 of ~0.01 and a DMSO concentration of 1%. An OD600 of ~0.01 accounted for approximately 3 × 10^8 colony forming units per mL (CFU/mL) for A. baumannii, 1 × 10^7 CFU/mL for E. coli and 5 × 10^7 CFU/mL for K. pneumoniae as determined by plate counting.
(§2) In a similar manner, two-fold dilution series of antibiotics were made in polystyrene microtiter plates (Costar, REF3779, Corning NY, United States) in 70 µL volume of LB broth. […] Mid-log phase cultures were diluted to OD600 0.1 and 10 µL culture was added to each well of the microtiter plate, resulting in a total volume of 110 µL and an OD600 of ~0.01 (~3 × 10^8 CFU/mL), and the OD600 was measured every 15 min for 12 h using the microplate reader. First, the MIC values of the antibiotics alone and the MIC values of the peptides alone were determined as described previously. […]

[2] = tested on: E. coli 31; experiment: MIC / checkerboard synergy assay; type: cell-based; details: Escherichia coli, 31, 12 h; read-out: MIC (compound alone)
Experimental: as §1, §2

[3] = tested on: A. baumannii 1757; experiment: MIC / checkerboard synergy assay (also with added LPS); type: cell-based, Acinetobacter baumannii
Experimental: as §1
(§3) In a similar manner, two-fold dilution series of antibiotics were made in polystyrene microtiter plates (Costar, REF3779, Corning NY, United States) in 70 µL volume of LB broth. Then, 50 µL of the antibiotic series was transferred to the peptide containing polypropylene plate, resulting in a checkerboard titration of a peptide on the vertical axis and an antibiotic on the horizontal axis. To some checkerboard assays 15 µg/mL isolated smooth (sm) LPS (from E. coli O55:B5, Sigma-Aldrich, L2880), rough (Ra) LPS (from E. coli EH100, Sigma-Aldrich, L9641) or deep rough (Rd) LPS (from E. coli F583, Sigma-Aldrich, L6893) LPS was added to the LB broth. Mid-log phase cultures were diluted to OD600 0.1 and 10 µL culture was added to each well of the microtiter plate, resulting in a total volume of 110 µL and an OD600 of ~0.01 (~3 × 10^8 CFU/mL), and the OD600 was measured every 15 min for 12 h using the microplate reader. First, the MIC values of the antibiotics alone and the MIC values of the peptides alone were determined as described previously. Similarly, the MIC values of the antibiotics in combination with the different peptides and the MIC values of the peptides in combination with the antibiotics were determined (the fractional inhibitory concentrations (FIC)). […] An FICindex between 0.5 and 1 was considered to be an additive effect.

[4] = tested on: A. baumannii 1681; experiment: MIC / checkerboard synergy assay; type: cell-based, Acinetobacter baumannii; details: Acinetobacter baumannii, 1681, 12 h; read-out: MIC (compound alone)
Experimental: as §1, §3

[5] = tested on: A. baumannii 2196; experiment: MIC / checkerboard synergy assay; type: cell-based, Acinetobacter baumannii; details: Acinetobacter baumannii, 2196, 12 h; read-out: MIC (compound alone)
Experimental: as §1, §3

[6] = tested on: K. pneumoniae 613; experiment: MIC / checkerboard synergy assay; type: cell-based, Klebsiella pneumoniae; details: Klebsiella pneumoniae, 613, 12 h; read-out: MIC (compound alone)
Experimental: as §1, §3

[7] = tested on: K. pneumoniae 821; experiment: MIC / checkerboard synergy assay; type: cell-based, Klebsiella pneumoniae; details: Klebsiella pneumoniae, 821, 12 h; read-out: MIC (compound alone)
Experimental: as §1, §3

[8] = tested on: K. pneumoniae 94; experiment: MIC / checkerboard synergy assay; type: cell-based, Klebsiella pneumoniae; details: Klebsiella pneumoniae, 94, 12 h; read-out: MIC (compound alone)
Experimental: as §1, §3

[9] = tested on: zebrafish larvae; experiment: Toxicity in zebrafish larvae (survival after caudal vein injection); details: survival of uninfected larvae vs vehicle (50% DMSO), five days
Experimental: Transparent Casper zebrafish (Danio rerio) larvae were infected and treated according to protocols described by Van der Sar et al. and Bernard et al. [43, 44]. In short, zebrafish larvae collected from a laboratory-breeding colony kept at 24 °C and a 12:12 h dark/light regime. Larvae were selected based on morphology according to hours post fertilization (hpf) and kept at 28 °C. All protocols followed the international guidelines on the protection of animals used for scientific purposes specified by the EU Directive 2010/63/EU, which allows zebrafish larvae to be used up to the moment of free-living (5–7 dpf). Larvae were dechorionated at 28 hpf and anaesthetized in 0.2% tricaine methanesulfonate (MS222, Fluka A-5040). Larvae were individually infected with 1 nL, containing approximately 100–150 CFU (1–1.5 CFU/mL), of Gram-negative bacteria via microinjection of the caudal vein as described previously [33]. One hour post infection, larvae were treated with cationic (stapled) peptides, antibiotics or a combination of the two via another microinjection of 1 nL in the caudal vein. To correct dilution of the treatment upon injection in the vein (1 nL in 250 nL zebrafish larvae volume), treatments were diluted in 0.1% phenol red (Sigma-Aldrich, p-0290) in phosphate buffered saline (PBS) to 250 times the concentration as tested in vitro. Zebrafish larvae were kept at 30 °C throughout the experiment and survival of the larvae, based on heartbeat, was determined every 24 h for 5 days.

[10] = tested on: A. baumannii 1757; experiment: Zebrafish larvae infection model; details: rifampicin / erythromycin experiment (Table S8); infected larvae, caudal vein injection, five days post infection; mean of three independent experiments
Experimental: Transparent Casper zebrafish (Danio rerio) larvae were infected and treated according to protocols described by Van der Sar et al. and Bernard et al. [43, 44]. In short, zebrafish larvae collected from a laboratory-breeding colony kept at 24 °C and a 12:12 h dark/light regime. Larvae were selected based on morphology according to hours post fertilization (hpf) and kept at 28 °C. All protocols followed the international guidelines on the protection of animals used for scientific purposes specified by the EU Directive 2010/63/EU, which allows zebrafish larvae to be used up to the moment of free-living (5–7 dpf). Larvae were dechorionated at 28 hpf and anaesthetized in 0.2% tricaine methanesulfonate (MS222, Fluka A-5040). Larvae were individually infected with 1 nL, containing approximately 100–150 CFU (1–1.5 CFU/mL), of Gram-negative bacteria via microinjection of the caudal vein as described previously [33]. One hour post infection, larvae were treated with cationic (stapled) peptides, antibiotics or a combination of the two via another microinjection of 1 nL in the caudal vein. […] Zebrafish larvae were kept at 30 °C throughout the experiment and survival of the larvae, based on heartbeat, was determined every 24 h for 5 days.

CN[C@H](CC(C)C)C(=O)N[C@H]1C(=O)N[C@@H](CC(N)=O)C(=O)N[C@H]2C(=O)N[C@H]3C(=O)N[C@H](C(=O)N[C@H](C(=O)O)c4cc(O)cc(O)c4-c4cc3ccc4O)[C@H](O)c3ccc(c(Cl)c3)Oc3cc2cc(c3O[C@@H]2O[C@H](CO)[C@@H](O)[C@H](O)[C@H]2O[C@H]2C[C@](C)(N)[C@H](O)[C@H](C)O2)Oc2ccc(cc2Cl)[C@H]1O [Vancomycin, vancomycin]
MIC ([1]; Escherichia coli, GSK12, 12 h, read-out: MIC (compound alone)): 78.7 ± 5.3 µM
MIC (compound alone) ([1]; compound alone, LB broth, MIC = 90% of growth prevented, OD600 over 12 h, mean ± SD): 78.65 ± 5.3 µM
MIC [2]: 24.5 ± 8.81 µM
MIC ([3]; Acinetobacter baumannii, 1757, 12 h, read-out: MIC (compound alone)): 5.98 ± 4.55 µM
MIC ([3]; Acinetobacter baumannii, 1757, LB medium with soluble deep rough LPS 15 µg/ml, mean ± SD, read-out: MIC, + Rd-LPS (F583)): 5.66 ± 4.15 µM
MIC ([3]; Acinetobacter baumannii, 1757, LB medium with soluble rough LPS 15 µg/ml, mean ± SD, read-out: MIC, + Ra-LPS (EH100)): 9.86 ± 7.36 µM
MIC ([3]; Acinetobacter baumannii, 1757, LB medium with soluble smooth LPS 15 µg/ml, mean ± SD, read-out: MIC, + Sm-LPS (055:B5)): 5.88 ± 3.56 µM
MIC ([3]; Acinetobacter baumannii, 1757, LB medium without supplement (Table S4), mean ± SD, read-out: MIC, No supplement): 3.03 ± 2.52 µM
MIC [4]: 19 ± 4.56 µM
MIC [5]: 34.7 ± 24 µM
MIC [6]: 269 ± 140 µM
MIC [7]: 197 ± 194 µM
MIC [8]: 263 ± 180 µM
Log2FoldChange compared to vehicle injected [9]: -0.26

CC[C@H]1OC(=O)[C@H](C)[C@@H](O[C@H]2C[C@@](C)(OC)[C@@H](O)[C@H](C)O2)[C@H](C)[C@@H](O[C@@H]2O[C@H](C)C[C@H](N(C)C)[C@H]2O)[C@](C)(O)C[C@@H](C)C(=O)[C@H](C)[C@@H](O)[C@]1(C)O [Erythromycin, erythromycin]
Survival (%) [10]: 0.01%
